We go through 1 molecule from PMC11356571, “The Comparative Metabolism of a Novel Hepatocellular Carcinoma Therapeutic Agent, 2,3-Diamino-N-(4-(benzo[d]thiazol-2-yl)phenyl)propanamide, in Human and Animal Hepatocytes” (Metabolites, 2024).

The structures appear in SMILES notation.

Data set [1] relates to NAT1 in human liver cytosol. Description: Human liver cytosol incubation with NAT1 inhibitor caffeic acid. The class given is in vitro ADME. To be noted: 30 min at 37 °C, M1 1 μM. The method, then: For the chemical inhibition assay, human liver cytosol was prepared in 0.05 M potassium phosphate buffer at a concentration of 1 mg/mL prior to use. A 1 μL of M1 (final concentration: 1 μM) solution was spiked in 223 μL of human liver cytosol preparations. One microliter each of caffeic acid and 1-aminobenzotriazole were added and incubated as NAT1 and NAT2 inhibitors, respectively. The final concentrations of the NAT inhibitors were 0, 100, and 1000 μM in each incubate. After 5 min of pre-warming of the incubates at 37 °C, the metabolic reaction was initiated by adding 25 μL of acetyl-CoA regenerating system to the incubates. The samples were incubated in triplicate for 0 min or 30 min at 37 °C. The reaction was stopped by adding 250 μL of ice-cold acetonitrile containing the IS (camptothecin, 500 ng/mL) and vortex-mixing. Following centrifugation at 13,000 rpm for 5 min at 4 °C, a 2 μL aliquot of the supernatant was injected into the LC-MS/MS system. The percentage of remaining M1 and the formation of M2 were evaluated to determine the involvement of the NAT isozyme in N-acetylation of M1.
For enzyme characterization, an Agilent 6460 triple quadrupole mass spectrometer coupled with a 1260 HPLC system (Agilent Technologies, Santa Clara, CA, USA) and a Kinetex Halo® C18 column (2.7 μm, 2.1 × 50 mm, Advanced Material Technology, Wilmington, DE, USA) were used for chromatographic separation. The mobile phases comprised 0.1% (v/v) formic acid in water (mobile phase A) and 0.1% formic acid (v/v) in acetonitrile (mobile phase B). The mobile phase flowed at a rate of 0.3 mL/min, and the gradient elution program proceeded as follows: starting with 10% B for 0.5 min, a linear increase to 90% B for 0.2 min, maintaining 90% B for 1.5 min, and then returning to initial conditions for 0.2 min. Subsequently, the column was reconditioned using 10% B for 2.6 min. The column and auto-sampler were maintained at 40 °C and 4 °C, respectively. ETN101, M1, and M2 were detected via MRM using ESI in the positive mode. […]

Data set [2] has as its target T1, human NAT1 (Homo sapiens, UniProt P18440).
T1 construct: purchased Corning Life Sciences (Woburn, MA, USA)
T1 sequence (P18440 1-290): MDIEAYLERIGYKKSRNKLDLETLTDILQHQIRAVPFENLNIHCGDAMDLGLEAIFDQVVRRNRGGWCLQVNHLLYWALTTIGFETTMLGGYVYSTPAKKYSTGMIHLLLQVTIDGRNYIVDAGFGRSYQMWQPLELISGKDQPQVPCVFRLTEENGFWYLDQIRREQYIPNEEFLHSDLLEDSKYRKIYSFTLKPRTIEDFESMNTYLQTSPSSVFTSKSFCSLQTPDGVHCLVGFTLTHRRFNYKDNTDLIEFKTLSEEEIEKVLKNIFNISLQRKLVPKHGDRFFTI
In words: Incubation with cDNA-expressed human NAT1. The following applies: cDNA-expressed human NAT1, 60 min at 37 °C, concentration of 0.1 μM. In kind it is in vitro ADME. As to the method: Additionally, M1 was incubated with cDNA-expressed human NAT1 isozyme to confirm the involvement of the NAT1 isozyme in the N-acetylation of M1. This was carried out by monitoring the remaining percentage of M1 and the formation of M2 in a concentration-dependent manner. A 225 μL reaction mixture containing cDNA-expressed human NAT1 at 1 μg/mL, and 1 μM M1 (final concentration: 0.1 and 1 μM) in 0.05 M potassium phosphate buffer was pre-warmed for 5 min. The reaction was initiated by adding 25 μL of acetyl-CoA regenerating system to the incubates. The acetyl-CoA regenerating system consisted of 0.1 mM acetyl-CoA, 4.5 mM acetyl-DL-carnitine, and 2.0 unit/mL carnitine acetyltransferase as final concentrations. The samples were incubated in triplicate for 0 min or 60 min at 37 °C. The reactions were stopped by adding 250 μL of ice-cold acetonitrile containing the IS (camptothecin, 500 ng/mL). Samples were centrifuged at 13,000 rpm for 5 min at 4 °C. An aliquot of 2 μL supernatant was injected in LC-MS/MS system.
For enzyme characterization, an Agilent 6460 triple quadrupole mass spectrometer coupled with a 1260 HPLC system (Agilent Technologies, Santa Clara, CA, USA) and a Kinetex Halo® C18 column (2.7 μm, 2.1 × 50 mm, Advanced Material Technology, Wilmington, DE, USA) were used for chromatographic separation. […] ETN101, M1, and M2 were detected via MRM using ESI in the positive mode. […]

Turning to `Nc1ccc(-c2nc3ccccc3s2)cc1` [M1, 2-(4-aminophenyl)benzothiazole], the “Percentage remaining of M1” value was 87.2% in data set [1] (caffeic acid 0 μM), 89.6% in data set [1] (caffeic acid 100 μM), 94.4% in data set [1] (caffeic acid 1000 μM) and 90.3% in data set [2].
